Results published in patent publication US20210277015A1, “OGA INHIBITOR COMPOUNDS” (Janssen Pharmaceutica NV, priority 2018, published 2021).

Tests used:
[1] = biological target: T1, recombinant human Meningioma Expressed Antigen 5 (MGEA5), also referred to as O-GlcNAcase (OGA) (Homo sapiens, UniProt O60502); assay: OGA biochemical assay (inhibition of FM-GlcNAc hydrolysis, fluorescence); details: FM-GlcNAc substrate; for IC50: 6 h at room temperature, read-out: Enzymatic hOGA, pIC50 (converted); for Emax / Enzymatic Emax (%): maximal effect; for Emax: read-out: Enzymatic Emax (%)
T1 construct: Full length OGA enzyme was purchased at OriGene (cat #TP322411); purchased OriGene TP322411
T1 sequence (O60502 1-916): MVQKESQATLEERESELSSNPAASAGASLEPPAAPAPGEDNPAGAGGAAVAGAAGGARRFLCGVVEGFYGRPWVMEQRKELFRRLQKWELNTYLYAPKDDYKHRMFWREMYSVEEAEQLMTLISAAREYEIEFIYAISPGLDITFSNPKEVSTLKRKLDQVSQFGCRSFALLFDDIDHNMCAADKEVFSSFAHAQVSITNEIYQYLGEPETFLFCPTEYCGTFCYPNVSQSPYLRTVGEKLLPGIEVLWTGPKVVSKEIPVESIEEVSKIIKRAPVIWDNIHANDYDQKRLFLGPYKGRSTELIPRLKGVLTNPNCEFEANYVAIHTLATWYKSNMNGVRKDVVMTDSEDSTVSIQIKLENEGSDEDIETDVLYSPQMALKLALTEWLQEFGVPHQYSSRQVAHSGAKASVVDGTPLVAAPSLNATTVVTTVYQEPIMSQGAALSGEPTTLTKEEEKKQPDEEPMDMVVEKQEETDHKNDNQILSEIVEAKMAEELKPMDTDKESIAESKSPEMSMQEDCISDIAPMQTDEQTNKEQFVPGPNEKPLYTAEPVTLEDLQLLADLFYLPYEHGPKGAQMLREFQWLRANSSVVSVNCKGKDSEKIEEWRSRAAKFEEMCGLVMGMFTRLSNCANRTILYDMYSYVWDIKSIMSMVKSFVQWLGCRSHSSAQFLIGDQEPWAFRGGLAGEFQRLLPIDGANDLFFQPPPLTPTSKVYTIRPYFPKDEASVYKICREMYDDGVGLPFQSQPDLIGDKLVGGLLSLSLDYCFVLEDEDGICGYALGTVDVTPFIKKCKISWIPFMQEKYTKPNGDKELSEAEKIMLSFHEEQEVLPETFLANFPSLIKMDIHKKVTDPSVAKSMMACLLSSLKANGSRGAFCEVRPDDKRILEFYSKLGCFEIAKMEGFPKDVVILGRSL
Text: The assay is based on the inhibition of the hydrolysis of fluorescein mono-β-D-N-Acetyl-Glucosamine (FM-GlcNAc) (Mariappa et al. 2015, Biochem J 470:255) by the recombinant human Meningioma Expressed Antigen 5 (MGEA5), also referred to as O-GlcNAcase (OGA). The hydrolysis FM-GlcNAc (Marker Gene technologies, cat #M1485) results in the formation of β-D-N-glucosamineacetate and fluorescein. The fluorescence of the latter can be measured at excitation wavelength 485 nm and emission wavelength 538 nm. An increase in enzyme activity results in an increase in fluorescence signal. Full length OGA enzyme was purchased at OriGene (cat #TP322411). The enzyme was stored in 25 mM Tris.HCl, pH 7.3, 100 mM glycine, 10% glycerol at −20° C. Thiamet G and GlcNAcStatin were tested as reference compounds (Yuzwa et al. 2008 Nature Chemical Biology 4:483; Yuzwa et al. 2012 Nature Chemical Biology 8:393). The assay was performed in 200 mM Citrate/phosphate buffer supplemented with 0.005% Tween-20. 35.6 g Na2HPO4 2 H2O (Sigma, #C0759) were dissolved in 1 L water to obtain a 200 mM solution. 19.2 g citric acid (Merck, #1.06580) was dissolved in 1 L water to obtain a 100 mM solution. pH of the sodium phosphate solution was adjusted with the citric acid solution to 7.2. The buffer to stop the reaction consists of a 500 mM Carbonate buffer, pH 11.0. 734 mg FM-GlcNAc were dissolved in 5.48 mL DMSO to obtain a 250 mM solution and was stored at −20° C. OGA was used at a 2 nM concentration and FM-GlcNAc at a 100 uM final concentration. Dilutions were prepared in assay buffer.
50 nl of a compound dissolved in DMSO was dispensed on Black Proxiplate™ 384 Plus Assay plates (Perkin Elmer, #6008269) and 3 μl fl-OGA enzyme mix added subsequently. Plates were pre-incubated for 60 min at room temperature and then 2 μl FM-GlcNAc substrate mix added. […] Plates were briefly centrifuged for 1 min at 1000 rpm and incubate at room temperature for 6 h. To stop the reaction 5 μl STOP buffer were added and plates centrifuge again 1 min at 1000 rpm. Fluorescence was quantified in the Thermo Scientific Fluoroskan Ascent or the PerkinElmer EnVision with excitation wavelength 485 nm and emission wavelength 538 nm.
For analysis a best-fit curve is fitted by a minimum sum of squares method. From this an IC50 value and Hill coefficient was obtained. High control (no inhibitor) and low control (saturating concentrations of standard inhibitor) were used to define the minimum and maximum values.

OGA = biological target: T2, OGA (Homo sapiens, UniProt O60502); assay: OGA cellular assay (ICC detection of O-GlcNAcylated proteins in HEK293 cells inducible for P301L mutant human Tau); type: cell-based; details: for Emax: HEK293, HEK293 cells inducible for P301L mutant human Tau; for Emax / Cellular Emax (%): maximum defined by Thiamet G at 200 uM; for EC50: read-out: Cellular hOGA, pEC50 (converted)
T2 construct: endogenous in cells; host or cells: HEK293 cells inducible for P301L mutant human Tau (isoform 2N4R)
T2 sequence (O60502 1-916): T1 sequence (O60502 1-916)
Protocol: HEK293 cells inducible for P301L mutant human Tau (isoform 2N4R) were established at Janssen. Thiamet-G was used for both plate validation (high control) and as reference compound (reference EC50 assay validation). OGA inhibition is evaluated through the immunocytochemical (ICC) detection of O-GlcNAcylated proteins by the use of a monoclonal antibody (CTD110.6; Cell Signaling, #9875) detecting O-GlcNAcylated residues as previously described (Dorfmueller et al. 2010 Chemistry & biology, 17:1250). Inhibition of OGA will result in an increase of O-GlcNAcylated protein levels resulting in an increased signal in the experiment. Cell nuclei are stained with Hoechst to give a cell culture quality control and a rough estimate of immediate compounds toxicity, if any. ICC pictures are imaged with a Perkin Elmer Opera Phenix plate microscope and quantified with the provided software Perkin Elmer Harmony 4.1.
Cells were propagated in DMEM high Glucose (Sigma, #D5796) following standard procedures. 2 days before the cell assay cells are split, counted and seeded in Poly-D-Lysine (PDL) coated 96-wells (Greiner, #655946) plate at a cell density of 12,000 cells per cm^2 (4,000 cells per well) in 100 μl of Assay Medium (Low Glucose medium is used to reduce basal levels of GlcNAcylation) (Park et al. 2014 The Journal of biological chemistry 289:13519). At the day of compound test medium from assay plates was removed and replenished with 90 μl of fresh Assay Medium. 10 μl of compounds at a 10 fold final concentration were added to the wells. Plates were centrifuged shortly before incubation in the cell incubator for 6 hours. DMSO concentration was set to 0.2%. Medium is discarded by applying vacuum. For staining of cells medium was removed and cells washed once with 100 μl D-PBS (Sigma, #D8537). From next step onwards unless other stated assay volume was always 50 μl and incubation was performed without agitation and at room temperature. Cells were fixed in 50 μl of a 4% paraformaldehyde (PFA, Alpha aesar, #043368) PBS solution for 15 minutes at room temperature. […] Before analysis samples were washed 2 times manually for 5 minutes in ICC base buffer.
Imaging is performed using Perkin Elmer Phenix Opera using a water 20× objective and recording 9 fields per well. Intensity readout at 488 nm is used as a measure of O-GlcNAcylation level of total proteins in wells. To assess potential toxicity of compounds nuclei were counted using the Hoechst staining. IC50-values are calculated using parametric non-linear regression model fitting. As a maximum inhibition Thiamet G at a 200 uM concentration is present on each plate. In addition, a concentration response of Thiamet G is calculated on each plate.

[2] = HEK293 cells inducible for P301L mutant human Tau, 6 hours incubation, ICC O-GlcNAcylation
[3] = HEK293 cells inducible for P301L mutant human Tau

SMILES	IC50 [1] [nM]	Emax [1] [%]	Emax (OGA) [%]	EC50 (OGA; [2]) [nM]	Enzymatic Emax (%) [1] [%]	Cellular hOGA; pEC50 (OGA; [2])	Cellular Emax (%) (OGA; [3])
Cc1ncc(O[C@@H]2CCN(C(C)c3ccc4c(n3)OCCO4)C2)cn1 (some centres unmarked) [Product 62]	2510	86	1	> 1000	–	–	–
COc1cc(C[C@H]2CCN(C(C)c3nc4c(cc3F)CCO4)C2)cc(C)n1 (single isomer, unassigned) [Product 84]	3.16	102	100	15.8	–	–	–
COc1cc(C[C@H]2CCN([C@@H](C)c3cc4c(cc3F)NCCO4)C2)cc(C)n1 (racemic) [Product 82]	10	101	81	251	–	–	–
CC(c1ccc2c(n1)OCCO2)N1CC[C@@H](Oc2ccc(C#N)nn2)C1 (single isomer, unassigned) [Product 55]	200	–	–	–	94	<6	24
Cc1cc(C[C@@H]2CCN(C(C)c3cc4c(cc3F)NCCO4)C2)cc(C)n1 (mixture of isomers) [Product 117]	15.8	99	60	316	–	–	–
Cc1cc(C[C@H]2CN(C(C)c3ccc4c(n3)OCCO4)C[C@@H]2C)cc(C)n1 (mixture of isomers) [Product 61]	126	–	–	794	97	–	56
Cc1cc(C[C@@H]2CCN(C(C)c3cnc4c(c3)OCCN4)C2)cc(C)n1 (mixture of isomers) [Product 118]	31.6	100	49	631	–	–	–
COc1cc(OC[C@@H]2CCN(C(C)c3ccc4c(n3)OCCO4)C2)cc(C)n1 (some centres unmarked) [Product 48]	1000	91	1	> 1000	–	–	–
COc1cc(C[C@H]2CCN(C(C)c3ccc4c(c3)OCC4)C2)cc(C)n1 (some centres unmarked) [Product 8]	126	101	58	794	–	–	–
Cc1cc(C[C@@H]2CCN(C(C)c3cnc4c(c3)OCCO4)C2)cc(C)n1 (single isomer, unassigned) [Product 35]	7940	–	–	> 1000	54	–	−6
COc1cc(C[C@@H]2CCN([C@H](C)c3ccc4c(n3)OCCO4)C2)cc(C)n1 (single isomer, unassigned) [Product 107]	1260	–	–	> 1000	90	–	−6
CC(c1cc2c(cc1F)OCCO2)N1CC[C@H](Cc2ncc(F)cc2F)C1 (single isomer, unassigned) [Product 29]	50.1	–	35	> 1000	102	–	–
COc1cc(CC2(C)CCN(C(C)c3ccc4c(n3)OCCO4)C2)cc(C)n1 (single isomer, unassigned) [Product 95]	79.4	100	39	> 1000	–	–	–

Results, then the compound that gave them:

IC50 [1] [nM]	Emax [1] [%]	Emax (OGA) [%]	EC50 (OGA; [2]) [nM]	Enzymatic Emax (%) [1] [%]	Cellular hOGA; pEC50 (OGA; [2])	Cellular Emax (%) (OGA; [3])	SMILES
6.31	–	–	63.1	101	–	80	Cc1cc(C[C@@H]2CCN(C(C)c3nc4c(cc3F)OCCO4)C2)cc(C)n1 (single isomer, unassigned) [Product 52]
20	98	69	316	–	–	–	Cc1cc(O[C@@H]2CCN(C(C)c3nc4c(cc3F)OCCO4)C2)cc(C)n1 (some centres unmarked) [Product 38]
7.94	100	–	158	–	–	84	Cc1cc(O[C@@H]2CCN(C(C)c3nc4c(cc3F)OCCO4)C2)cc(C)n1 (single isomer, unassigned) [Product 40]
63.1	93	43	> 1000	–	–	–	CC(c1nc2c(cc1F)OCCO2)N1CC[C@@H](Oc2ccc(C#N)nn2)C1 (some centres unmarked) [Product 53]
50.1	95	59	437	–	–	–	Cc1cc(O[C@@H]2CCN(C(C)c3nc4c(cc3F)OCCO4)C2)nc(C)n1 (some centres unmarked) [Product 128]
63.1	100	–	631	–	–	51	Cc1cc(C[C@@H]2CCN([C@H](C)c3ccc4c(n3)OCCO4)C2)cc(C)n1 (single isomer, unassigned) [Product 104]
100	94	73	501	–	–	–	Cc1ncc(O[C@@H]2CCN(C(C)c3nc4c(cc3F)OCCO4)C2)nc1C (some centres unmarked) [Product 126]
